Data reported in BindingDB's records for patent US10849881 (Hoffmann-La Roche, 2020).

Target: Autotaxin (Homo sapiens, UniProt Q13822)
Assay: Enzyme Inhibition Assay
Method: ATX inhibition was measured by a fluorescence quenching assay using a specifically labeled substrate analogue (MR121 substrate). To obtain this MR121 substrate, BOC and TBS protected 6-amino-hexanoic acid (R)-3-({2-[3-(2-{2-[2-(2-amino-ethoxy)-ethoxy]-ethoxy}-ethoxy)-propionylamino]-ethoxy}-hydroxy-phosphoryloxy)-2-hydroxy-propyl ester (Ferguson et al., Org Lett 2006, 8 (10), 2023) was labeled with MR121 fluorophore (CAS 185308-24-1, 1-(3-carboxypropyl)-11-ethyl-1,2,3,4,8,9,10,11-octahydro-dipyrido[3,2-b:2′,3′-i]phenoxazin-13-ium) on the free amine of the ethanolamine side and then, after deprotection, subsequently with tryptophan on the side of the aminohexanoic acid.Assay working solutions were made as follows:Assay buffer (50 mM Tris-HCl, 140 mM NaCl, 5 mM KCl, 1 mM CaCl2, 1 mM MgCl2, 0.01% Triton-X-100, pH 8.0;ATX solution: ATX (human His-tagged) stock solution (1.08 mg/mL in 20 mM bicine, pH 8.5, 0.15 M NaCl, 10% glycerol, 0.3% CHAPS, 0.02% NaN3), diluted to 1.4-2.5× final concentration in assay buffer;MR121 substrate solution: MR121 substrate stock solution (800 μM MR121 substrate in DMSO), diluted to 2-5× final concentration in assay buffer.

Q: `O=C(c1ccc2cc(Br)ccc2c1)N1C[C@@H]2[C@H](C1)[C@H]1CN(C(=O)c3ccc4[nH]nnc4c3)C[C@@H]21` [US10849881, Example 1.004] was tested. Which IC50 did it give?
A: 17 nM
